The text below walks through data of patent US20250295620A1, “PHARMACEUTICAL COMPOSITION FOR TREATMENT OF HEART FAILURE WITH DIASTOLIC DYSFUNCTION” (NATIONAL UNIVERSITY CORPORATION TOKAI NATIONAL HIGHER …, priority 2022, published 2025).

Assay [1] relates to HFpEF model mice. The assay is described as follows: Transthoracic echocardiography in HFpEF model mice, Example 1. Type of assay: in vivo. Particulars: tamibarotene 3 mg/kg, peretinoin 0.3 mg/body, oral gavage once a day, five weeks; for left ventricular ejection fraction before and after drug administration: Example 1, FIG. 2; for E/e′ ratio after completion of drug administration compared with before start: Example 1, FIG. 3. Here is the method: (§1) HFpEF model mice are generated by the method reported by Schiattarella et al. (Nature. 568 (7752): 351-356. 2019). Specifically, male mice at an age of 8 to 10 weeks are given High Fat Diet (Rodent Diet with 60% kcal % fat, D12492, Research Diets Inc.) and drinking water containing a dissolved nitric oxide synthase inhibitor (No-nitro-L-arginine methyl ester hydrochloride (L-NAME), N5751, Sigma) (at a concentration of 0.5 g/L), and kept for five weeks. Various measurements are performed to confirm the establishment of an HFpEF model.
(§2) The following drugs are administered to mouse groups while mice are continued to be given the high-fat diet and the drinking water containing the dissolved nitric oxide synthase inhibitor. AM80 (Cat. No. 3507, TOCRIS) is orally administered to tamibarotene administration group via oral gavage at a single dose of 3 mg/kg once a day. Peretinoin (Cat. No. HY-100008, MedChemExpress) is orally administered to peretinoin administration group via oral gavage at a single dose of 0.3 mg/body once a day. DMSO as a vehicle is orally administered to control group via oral gavage once a day. Administration is continued for five weeks, and various measurements are performed five weeks after the initial drug administration.
(§3) Transthoracic echocardiography is performed on mice under inhalational anesthesia with isoflurane. Transmitral flow velocity pattern (TMF) is measured by pulsed Doppler echocardiography using vevo 3100 (FUJIFILM VisualSonics) equipped with a 30 MHz probe for small animals (MX-400) to determine the early diastolic inflow velocity pattern (E-wave). Early diastolic mitral annular velocity (e′) is measured by tissue Doppler echocardiography. The transmitral E velocity is divided by the e′ velocity to calculate an E/e′ ratio. LV end-systolic diameter and LV end-diastolic diameter are measured by M-mode echocardiography to calculated an LV ejection fraction (EF %).

The test system of assay [2] is HFpEF model mice. Put plainly: Transthoracic echocardiography in HFpEF model mice, Example 2. Type of assay: in vivo. Particulars: tamibarotene 3 mg/kg, peretinoin 10 mg/kg, oral gavage once a day, five weeks; for left ventricular ejection fraction before and after drug administration: Example 2, FIG. 6; for E/e′ ratio after completion of drug administration compared with before start: Example 2, FIG. 7. Here is the method: as §1
as §2, with “10 mg/kg” for “0.3 mg/body”
as §3

Assay [3] has as its system HFpEF model mice. The assay is described as follows: Pressure-volume loop analysis with conductance catheter in HFpEF model mice, Example 2. Type of assay: in vivo. Particulars: Example 2, FIG. 8; tamibarotene 3 mg/kg, peretinoin 10 mg/kg, oral gavage once a day, five weeks. Here is the method: as §1
as §2, with “10 mg/kg” for “0.3 mg/body”, “administration. […]” for “administration.”

Assay [4] relates to HFpEF model mice. The assay is described as follows: Masson's trichrome staining of heart tissue of HFpEF model mice, Example 2. Type of assay: in vivo. Particulars: Example 2, FIG. 9; tamibarotene 3 mg/kg, peretinoin 10 mg/kg, oral gavage once a day, five weeks; 400-fold. Here is the method: as §1
The following drugs are administered to mouse groups while mice are continued to be given the high-fat diet and the drinking water containing the dissolved nitric oxide synthase inhibitor. AM80 (Cat. No. 3507, TOCRIS) is orally administered to tamibarotene administration group via oral gavage at a single dose of 3 mg/kg once a day. Peretinoin (Cat. No. HY-100008, MedChemExpress) is orally administered to peretinoin administration group via oral gavage at a single dose of 10 mg/kg once a day. DMSO as a vehicle is orally administered to control group via oral gavage once a day. […]
Tissue specimens are prepared from the harvested heart, and stained with Masson's trichrome staining. The tissue fibrosis is photographed, and the images are analyzed using Image J for assessment.

Assay [5] deals with HFpEF model mice. The assay is described as follows: Diastolic function of HFpEF model mice, overall conclusion from Examples 1 and 2. Particulars: summary of Examples 1 and 2. Type of assay: in vivo. Here is the method: as §1
The following drugs are administered to mouse groups while mice are continued to be given the high-fat diet and the drinking water containing the dissolved nitric oxide synthase inhibitor. […]
Transthoracic echocardiography is performed on mice under inhalational anesthesia with isoflurane. Transmitral flow velocity pattern (TMF) is measured by pulsed Doppler echocardiography using vevo 3100 (FUJIFILM VisualSonics) equipped with a 30 MHz probe for small animals (MX-400) to determine the early diastolic inflow velocity pattern (E-wave). Early diastolic mitral annular velocity (e′) is measured by tissue Doppler echocardiography. […] LV end-systolic diameter and LV end-diastolic diameter are measured by M-mode echocardiography to calculated an LV ejection fraction (EF %). […]

Assay [6] has as its system HFpEF model mice. Put plainly: Heart weight/tibia length measurement in HFpEF model mice, Example 2. Particulars: Example 2, FIG. 5; tamibarotene 3 mg/kg, peretinoin 10 mg/kg, oral gavage once a day, five weeks; compared among groups incl. DMSO control. Type of assay: in vivo. Here is the method:
as §1
as §2, with “10 mg/kg” for “0.3 mg/body”
Mice are euthanized after the catheterization, and the heart is harvested for weight measurement. […]

The test system of assay [7] is HFpEF model mice. Put plainly: Pressure-volume loop analysis with conductance catheter in HFpEF model mice, Example 1. Type of assay: in vivo. Conditions: Example 1, FIG. 4; tamibarotene 3 mg/kg, peretinoin 0.3 mg/body, oral gavage once a day, five weeks. Here is the method:
as §1
as §2, with “administration. […]” for “administration.”

Assay [8] deals with HFpEF patients. Particulars: clinical studies, Anker S et al., N Engl J Med 2021; cited from earlier work.

Take `CC(C)=CCC/C(C)=C/CC/C(C)=C/C=C/C(C)=C/C(=O)O` [peretinoin]: the “left ventricular ejection fraction before and after drug administration” value in assay [1] and in assay [2] was “no difference” throughout. In addition, the “E/e′ ratio after completion of drug administration compared with before start” value in assay [1] and in assay [2] was “significantly reduced” throughout. Besides, the entries for the “stiffness constant β compared with control group” value in assay [3] and in assay [7] were “significantly reduced” and “reduced”, respectively. Besides, the “tissue fibrosis (fibrosis area, high-power field) compared with control group” value in assay [4] is “significantly reduced”. Further, the “effect on the diastolic function of the HFpEF model mice” value in assay [5] was “improving effect”. Also, the “heart weight/tibia length ratio after completion of drug administration” value in assay [6] is listed as “no significant difference”.
Take `OC[C@H]1O[C@@H](c2ccc(Cl)c(Cc3ccc(O[C@H]4CCOC4)cc3)c2)[C@H](O)[C@@H](O)[C@@H]1O` [Empagliflozin]: in assay [8], the “efficacy for HFpEF patients” value is “effective”.
On to `CC1(C)CCC(C)(C)c2cc(NC(=O)c3ccc(C(=O)O)cc3)ccc21` [tamibarotene], for which the “left ventricular ejection fraction before and after drug administration” value in assay [1] and in assay [2] was “no difference” each time. Besides, the “E/e′ ratio after completion of drug administration compared with before start” value in assay [1] and in assay [2] was “significantly reduced” in each case. The “stiffness constant β compared with control group” value in assay [3] is recorded as “significantly reduced”; in assay [7], “reduced”. Besides, the “tissue fibrosis (fibrosis area, high-power field) compared with control group” value in assay [4] is listed as “significantly reduced”. The “effect on the diastolic function of the HFpEF model mice” value in assay [5] was “improving effect”. The “heart weight/tibia length ratio after completion of drug administration” value in assay [6] was “no significant difference”.
